Assays:
Assay type in all cases: cell-based
[1] = system: primary human CD4 T-lymphocytes; experiment: Cell hyperproliferation in primary T cells (CFSE staining, mitotic index); details: for mitotic index %: % of not treated control (100%), day 10, HU 100 μM; for mitotic index % / anti-proliferative activity (in words): SPPs 10 μM, Imatinib 10 μM; for anti-proliferative activity (in words): compared with HU 100 μM, HU+ddI or untreated control
Experimental: We built up an experimental model using primary T cells to study the activity of the compounds on induced hyperproliferation of cells, which is a characteristic of both chronic viral diseases and cancer including HIV and leukemia.
(§1) Unstimulated (quiescent/resting, day 0 to 5) primary human CD4 T-lymphocytes were obtained by magnetic bead separation from healthy, normal donors. After five days in culture, cells were activated with PHA (5 μg/ml) to induce hyperproliferation then, at day 7, IL-2 (20 U/ml) was added (stimulated, day 6 to 10). All available compounds were tested at a concentration of 10 μM. […] At day 10, cells were harvested. Proliferation of T cells, cultured as described above, was studied by staining the cells with carboxyfluorescein diacetate-succinimidyl ester (CFSE) at day 0 (immediately after infection). For data analysis, the mitotic index (M) was used, calculating the sum of mitotic events at each proliferation cycle. To extract a relative number, M was normalized to the total number of cells acquired using the equation M=Σ[(Xn(T)−Xn(T)/2^n)], that gives the number of mitotic events from the experimentally obtained values of the proportion of T cells under each division peak n (Xn) and the total T cells (T). To study the effect of the compounds on apoptosis T cells were cultured as described above and at day 10 cells were stained with Annexin V and 7-AAD, in order to determine the percentage of total apoptotic events.

[2] = system: primary human CD4 T-lymphocytes; experiment: Apoptosis in primary CD4 T cells (Annexin V and 7-AAD staining); details: SPPs 10 μM; for apoptotic effect (in words): compared with HU 100 μM, HU+ddI or untreated control; for apoptosis %: total apoptotic events compared to untreated control, day 10, Imatinib 10 μM, HU 100 μM, ddI 2 μM
Experimental: as §1
We determined the capacity of the compounds to affect the percentages of apoptotic events after 10 days of treatment in primary CD4 T cells.

[3] = system: HIV-1 NL 4.3; experiment: HIV-1 replication in activated T cells (PBMC, p24 Ag ELISA); details: for anti-HIV activity in activated T cells (in words): SPPs 10 μM, compared with HU 100 μM, HU+ddI or untreated control; for HIV activated cells (% p24 compared to not treated control): activated T cells, 7 days, SPPs and Imatinib 10 μM, HU 100 μM, ddI 2 μM
Experimental: The experimental setup described below allows us to detect direct antiviral activity of a compound.
Human PBMC, obtained from healthy, normal donors, were stimulated for two days with PHA 5 μg/ml. Then cells were infected with HIV-1 NL 4.3, IL-2 was added (20 U/ml), cells were plated (10^5 cells per well in 200 μl) and drug treatment started. […] The control was left untreated. After 7 days of incubation at 37° C. supernatants were harvested and HIV-1 p24 Ag was measured by ELISA.

[4] = system: HIV-1 NL 4.3; experiment: HIV-1 replication in quiescent CD4 T cells (p24 Ag ELISA); details: for anti-HIV activity in quiescent cells (in words) / HIV quiescent cells (percentage p24 compared to the untreated control): SPPs 10 μM; for anti-HIV activity in quiescent cells (in words): compared with HU 100 μM, HU+ddI or untreated control; for HIV quiescent cells (percentage p24 compared to the untreated control): quiescent CD4 T cells, day 10, HU 100 μM, HU 100 μM+ddI 2 μM
Experimental: Unstimulated (quiescent/resting, day 0 to 5) human CD4 T-lymphocytes, obtained by magnetic bead separation from healthy, normal donors, were infected with HIV-1 NL 4.3. After five days in culture, cells were stimulated with PHA (5 μg/ml) to induce proliferation, and then, at day 7, IL-2 (20 U/ml) was added (stimulated, day 6 to 10). All available compounds were tested at a concentration of 10 μM. HU 100 μM and HU 100 μM+ddI 2 μM were also employed as comparators and the negative control was left untreated. At day 10, cells and supernatants were harvested and HIV-1 p24 Ag was measured by ELISA. HIV replication was expressed as percentage p24 compared to the untreated control.

Structure (SMILES)	inhibition at 10 µM ([1]; Homo sapiens, T-lymphocyte, read-out: decrease/inhibition of cell proliferation compared to not treated control) [%]	apoptotic effect (in words) [2]	anti-HIV activity in activated T cells (in words) [3]	anti-HIV activity in quiescent cells (in words) [4]	HIV quiescent cells (percentage p24 compared to the untreated control) [4] [%]	mitotic index % [1] [%]	anti-proliferative activity (in words) [1]	apoptosis % [2] [%]	HIV activated cells (% p24 compared to not treated control) [3] [%]	Antiviral activity in quiescent cells ([4]; class symbol, Table 6)	Anti-proliferative capacity ([1]; class symbol, Table 6)	Antiviral activity in activated cells ([3]; class symbol, Table 6)
Cc1ccc(NC(=O)c2ccc(CN3CCN(C)CC3)cc2)cc1Nc1nccc(-c2cccnc2)n1 [Imatinib, reference compound]	62	no significant increases	comparable antiviral capacity									
C(=Cn1ncc2c(N3CCCCCC3)ncnc21)c1ccccc1 [VS1-001]		did not induce apoptosis	very effective inhibitor of HIV replication	very effective inhibitor of HIV replication	19.6 ± 20.3	52.0 ± 2.0	less effective than HU	80.3 ± 19.2	12.5 ± 2.3			
CCCCNc1ncnc2c1cnn2CC(Br)c1ccccc1 (centres unmarked) [VS1-006]			not effective		17.8 ± 2.5	54.0	not effective		100.5 ± 26.4			
BrC(Cn1ncc2c(NC3CCCCC3)ncnc21)c1ccccc1 (centres unmarked) [VS1-007]			no effect on HIV replication		75.7 ± 18.8	87.0	poor performance		70.6 ± 24.3			
CCCCNc1ncnc2c1cnn2CC(Cl)c1ccccc1 (centres unmarked) [VS1-008]		did not induce apoptosis	good activity	good activity	11.2 ± 7.7	8.1 ± 1.8	good activity against proliferation (even better than HU though 10 times less concentrated)	115.8 ± 39.4	11.8 ± 5.6	+++ (excellent (+++, greater than 70% activity))	+++ (excellent (+++, greater than 70% activity))	+++ (excellent (+++, greater than 70% activity))
C(=Cn1ncc2c(N3CCOCC3)ncnc21)c1ccccc1 [VS1-009]			very little activity		71.8 ± 42.9	88.4 ± 19.8	very little activity	114.2 ± 21.3	44.8 ± 14.9			
C(=Cn1ncc2c(NC3CCCCC3)ncnc21)c1ccccc1 [VS1-012]			better anti-HIV activity than HU		10.9 ± 5.0	68.8 ± 10.7		46.3 ± 9.1	18.6 ± 2.9			
C(=Cn1ncc2c(NCc3ccccc3)ncnc21)c1ccccc1 [VS1-013]					63.3 ± 26.0	85.6 ± 3.6		121.3 ± 14.1	116.4 ± 21.1			
C(=Cn1ncc2c(NCCc3ccccc3)ncnc21)c1ccccc1 [VS1-014]					74.3 ± 22.8	76.9 ± 2.7		135.2 ± 19.3	92.4 ± 24.3			
CSc1nc(Nc2cccc(Cl)c2)c2cnn(C=Cc3ccccc3)c2n1 [VS1-016]			better anti-HIV activity than HU		23.6 ± 22.1	71.2 ± 5.8		88.0 ± 12.7	21.0 ± 6.3			
CSc1nc(NCc2ccc(F)cc2)c2cnn(CC(Cl)c3ccccc3)c2n1 (centres unmarked) [VS1-017]			poor activity		38.7 ± 44.5	34.5 ± 6.7	poor activity	130.0 ± 19.3	63.4 ± 31.2			
BrC(Cn1ncc2c(N3CCCCCC3)ncnc21)c1ccccc1 (centres unmarked) [VS1-018]		proapoptotic	poor activity		11.5 ± 3.2	42.4 ± 21.8	poor activity	176.0 ± 22.5	93.6 ± 28.3			
CSc1nc(NCc2ccccc2)c2cnn(C=Cc3ccccc3)c2n1 [VS1-019]			poor activity		46.7 ± 31.3	81.3 ± 18.9	poor activity	94.0 ± 11.2	89.3 ± 25.5			
CCSc1nc(NCc2ccccc2)c2cnn(CC(Cl)c3ccccc3)c2n1 (centres unmarked) [VS1-020]		proapoptotic	effective against HIV	effective against HIV	9.2 ± 3.7	21.9 ± 13.0	as anti-proliferative or even better than HU	174.7 ± 25.9	26.3 ± 6.1			
CCCCNc1ncnc2c1cnn2C=Cc1ccccc1 [VS1-021]			poor activity		115.4 ± 40.4	86.2 ± 13.7	poor activity	108.0 ± 21.7	97.2 ± 30.3			

Source: US20120022048A1, “Anti-proliferative substituted pyrazolo[3,4-d]pyrimidines derivatives (SPP) to inhibit immune activation, virus replication and tumor growth” (priority 2010, published 2012)
